Source: patent publication US20180305332A1, “Bispiperidinyl Derivatives as Liver X Receptor Beta Agonists, Compositions, and Their Use” (Merck Sharp & Dohme Corp., priority 2015, published 2018)

What was measured:
[1] = target: T1, GST tagged LXRbeta LBD (ligand binding domain) (Homo sapiens, UniProt P55055); experiment: LanthaScreen TR-FRET Liver X Receptor Coactivator Assay, LXR beta-LBD; format: biochemical; details: relative to reference T0901317; for EC50: Inflection Point (potency), co-activator recruitment, read-out: LXR beta IP; for Emax / LXR beta act @ max dose (%): activity at max dose (efficacy); for Emax: read-out: LXR beta act @ max dose (%)
T1 construct: purchased Invitrogen pv4658.pps
T1 sequence (P55055 222-460 limits assumed): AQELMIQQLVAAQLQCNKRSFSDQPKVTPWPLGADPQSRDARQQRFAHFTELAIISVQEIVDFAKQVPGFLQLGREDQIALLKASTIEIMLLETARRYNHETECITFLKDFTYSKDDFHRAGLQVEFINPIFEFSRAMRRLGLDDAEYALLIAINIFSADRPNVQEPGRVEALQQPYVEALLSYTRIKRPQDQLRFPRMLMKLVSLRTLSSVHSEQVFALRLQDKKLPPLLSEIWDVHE
Outline: (§1)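 TR-FRET signal reflects compound-driven recruitment of a fluorescein-tagged coactivator peptide to the GST-tagged LBD, detected via terbium-labelled anti-GST antibody after incubation at room temperature. Potency given as inflection point; efficacy as Emax versus T0901317.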

[2] = target: T2, GST tagged LXRalpha LBD (ligand binding domain) (Homo sapiens, UniProt Q13133); experiment: LanthaScreen TR-FRET Liver X Receptor Coactivator Assay, LXR alpha-LBD; format: biochemical; details: relative to reference T0901317; for EC50 / LXR alpha IP (nM): Inflection Point (potency), co-activator recruitment; for EC50: read-out: LXR alpha IP; for Emax / LXR alpha act @ max dose (%): activity at max dose (efficacy); for Emax: read-out: LXR alpha act @ max dose (%)
T2 construct: purchased Invitrogen pv4655
T2 sequence (Q13133 209-447 limits assumed): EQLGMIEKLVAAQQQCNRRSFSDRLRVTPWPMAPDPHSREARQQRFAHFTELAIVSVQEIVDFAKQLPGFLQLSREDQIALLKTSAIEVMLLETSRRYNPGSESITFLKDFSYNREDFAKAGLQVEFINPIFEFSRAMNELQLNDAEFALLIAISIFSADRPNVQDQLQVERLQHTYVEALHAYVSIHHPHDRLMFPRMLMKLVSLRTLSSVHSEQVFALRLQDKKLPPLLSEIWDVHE
Outline: as §1

SMILES	EC50 [1] [nM]	Emax [1] [%]	EC50 [2] [nM]	Emax [2] [%]	LXR alpha IP (nM) [2]	LXR beta act @ max dose (%) [1] [%]	LXR alpha act @ max dose (%) [2] [%]
CN(C)C(=O)c1ccc(N2CCC(C3CCN(C(=O)C4(c5ccccc5F)CCC4)CC3)CC2)cc1Cl [Example A-73, 2-chloro-4-(1′-{[1-(2-fluorophenyl)cyclobutyl]carbonyl}-4,4′-bipiperidin-1-yl)-N,N-dimethylbenzamide]	30	113	1020	61			
CN(C)C(=O)c1ccc(N2CCC(C3CCN(C(=O)C4(c5cc(F)ccc5F)CCC4)CC3)CC2)cc1Cl [Example A-76, 2-chloro-4-(1′-{[1-(2,5-difluorophenyl)cyclobutyl]carbonyl}-4,4′-bipiperidin-1-yl)-N,N-dimethylbenzamide]	374	87	2000	31			
CN(C)C(=O)c1ccc(N2CCC(C3CCN(C(=O)C4(c5ccc(Cl)cc5Cl)CCC4)CC3)CC2)cc1Cl [Example A-77, 2-chloro-4-(1′-{[1-(2,4-dichlorophenyl)cyclobutyl]carbonyl}-4,4′-bipiperidin-1-yl)-N,N-dimethylbenzamide]	52	86	618	31			
CN(C)C(=O)c1ccc(N2CCC(C3CCN(C(=O)C4(c5cc(F)cc(F)c5)CCCC4)CC3)CC2)cc1Cl [Example A-79, 2-chloro-4-(1′-{[1-(3,5-difluorophenyl)cyclopentyl]carbonyl}-4,4′-bipiperidin-1-yl)-N,N-dimethylbenzamide]	216	125	2540	35			
COc1cccc(C(O)(C(=O)N2CCC(C3CCN(c4ccc(C(=O)N(C)C)c(Cl)c4)CC3)CC2)C(F)(F)C(F)(F)F)c1 (stereo not shown) [Example A-85, 2-chloro-N,N-dimethyl-4-{1′-[3,3,4,4,4-pentafluoro-2-hydroxy-2-(3-methoxyphenyl)butanoyl]-4,4′-bipiperidin-1-yl}benzamide]	180		1120			115	41
CN(C)C(=O)c1ccc(N2CCC(C3CCN(C(=O)C4(c5ccccc5Cl)CC4)CC3)CC2)cc1Cl [Example A-86, 2-chloro-4-(1′-{[1-(2-chlorophenyl)cyclopropyl]carbonyl}-4,4′-bipiperidin-1-yl)-N,N-dimethylbenzamide]	16	112	671	73			
COc1ccccc1C1(C(=O)N2CCC(C3CCN(c4ccc(C(=O)N(C)C)c(Cl)c4)CC3)CC2)CCC1 [Example A-87, 2-chloro-4-(1′-{[1-(2-methoxyphenyl)cyclobutyl]carbonyl}-4,4′-bipiperidin-1-yl)-N,N-dimethylbenzamide]	11	110	499	58			
COc1ccccc1C(C)(C)C(=O)N1CCC(C2CCN(c3ccc(C(=O)N(C)C)c(Cl)c3)CC2)CC1 [Example A-88, 2-chloro-4-{1′-[2-(2-methoxyphenyl)-2-methylpropanoyl]-4,4′-bipiperidin-1-yl}-N,N-dimethylbenzamide]	74	101	1080	37			

Continued, values first:

EC50 [1] [nM]	Emax [1] [%]	EC50 [2] [nM]	Emax [2] [%]	LXR alpha IP (nM) [2]	LXR beta act @ max dose (%) [1] [%]	LXR alpha act @ max dose (%) [2] [%]	SMILES
64	127	1640	62				CN(C)C(=O)c1ccc(N2CCC(C3CCN(C(=O)C4(c5ccccc5F)CC4)CC3)CC2)cc1Cl [Example A-71, 2-chloro-4-(1′-{[1-(2-fluorophenyl)cyclopropyl]carbonyl}-4,4′-bipiperidin-1-yl)-N,N-dimethylbenzamide]
112	96	1260	30				Cc1ccc(C2(C(=O)N3CCC(C4CCN(c5ccc(C(=O)N(C)C)c(Cl)c5)CC4)CC3)CCC2)cc1 [Example A-72, 2-chloro-N,N-dimethyl-4-(1′-{[1-(4-methylphenyl)cyclobutyl]carbonyl}-4,4′-bipiperidin-1-yl)benzamide]
413	57		0	NO IP			CN(C)C(=O)c1ccc(N2CCC(C3CCN(C(=O)C4(c5ccc(Cl)c(Cl)c5)CCC4)CC3)CC2)cc1Cl [Example A-74, 2-chloro-4-(1′-{[1-(3,4-dichlorophenyl)cyclobutyl]carbonyl}-4,4′-bipiperidin-1-yl)-N,N-dimethylbenzamide]
18	118	446	65				Cc1ccccc1C1(C(=O)N2CCC(C3CCN(c4ccc(C(=O)N(C)C)c(Cl)c4)CC3)CC2)CCC1 [Example A-75, 2-chloro-N,N-dimethyl-4-(1′-{[1-(2-methylphenyl)cyclobutyl]carbonyl}-4,4′-bipiperidin-1-yl)benzamide]
210	81		15	NO IP			COc1cccc(C2(C(=O)N3CCC(C4CCN(c5ccc(C(=O)N(C)C)c(Cl)c5)CC4)CC3)CCCC2)c1 [Example A-78, 2-chloro-4-(1′-{[1-(3-methoxyphenyl)cyclopentyl]carbonyl}-4,4′-bipiperidin-1-yl)-N,N-dimethylbenzamide]
31	116	1170	67				CN(C)C(=O)c1ccc(N2CCC(C3CCN(C(=O)C(C)(C)c4ccccc4F)CC3)CC2)cc1Cl [Example A-80, 2-chloro-4-{1′-[2-(2-fluorophenyl)-2-methylpropanoyl]-4,4′-bipiperidin-1-yl}-N,N-dimethylbenzamide]
283	104	3670	25				COc1cccc(C(O)(C(=O)N2CCC(C3CCN(c4ccc(C(=O)N(C)C)c(Cl)c4)CC3)CC2)C(F)(F)C(F)(F)F)c1 (stereo not shown) [Example A-81, 2-chloro-N,N-dimethyl-4-{1′-[3,3,4,4,4-pentafluoro-2-hydroxy-2-(3-methoxyphenyl)butanoyl]-4,4′-bipiperidin-1-yl}benzamide]
7	107	148	58				CN(C)C(=O)c1ccc(N2CCC(C3CCN(C(=O)C4(c5c(F)cccc5Cl)CCCC4)CC3)CC2)cc1Cl [Example A-82, 2-chloro-4-(1′-{[1-(2-chloro-6-fluorophenyl)cyclopentyl]carbonyl}-4,4′-bipiperidin-1-yl)-N,N-dimethylbenzamide]
15	115	594	74				CN(C)C(=O)c1ccc(N2CCC(C3CCN(C(=O)C(C)(C)c4ccccc4Cl)CC3)CC2)cc1Cl [Example A-83, 2-chloro-4-{1′-[2-(2-chlorophenyl)-2-methylpropanoyl]-4,4′-bipiperidin-1-yl}-N,N-dimethylbenzamide]
173		1370			116	63	CCCC(O)(C(=O)N1CCC(C2CCN(c3ccc(C(=O)N(C)C)c(Cl)c3)CC2)CC1)C(F)(F)F (stereo not shown) [Example A-84, 2-chloro-4-{1′-[2-hydroxy-2-(trifluoromethyl)pentanoyl]-4,4′-bipiperidin-1-yl}-N,N-dimethylbenzamide]
102		1220			94	36	CC(C)CC(O)(C(=O)N1CCC(C2CCN(c3ccc(C(=O)N(C)C)c(Cl)c3)CC2)CC1)C(F)(F)F (stereo not shown) [Example A-89, 2-chloro-4-{1′-[2-hydroxy-4-methyl-2-(trifluoromethyl)pentanoyl]-4,4′-bipiperidin-1-yl}-N,N-dimethylbenzamide]
